In ChEMBL document CHEMBL3046108, “Comparison between antioxidant activity of 2,5-disubstituted 1,3,4-oxadiazoles containing heteroaromatic ring and aromatic ring at 2nd position” (Med Chem Res, 2011):
In brackets after ≈: the same amount, converted by molar mass.

How the values were obtained:
Assay type in all cases: functional
[1] = tested on: Radical scavenging activity; experiment: Antioxidant activity of the compound assessed as DPPH radical scavenging activity at 2 ug/ml after 30 min
[2] = tested on: Radical scavenging activity; experiment: Antioxidant activity of the compound assessed as DPPH radical scavenging activity at 8 ug/ml after 30 min
[3] = tested on: Radical scavenging activity; experiment: Antioxidant activity of the compound assessed as DPPH radical scavenging activity at 10 ug/ml after 30 min
[4] = tested on: Radical scavenging activity; experiment: Antioxidant activity of the compound assessed as DPPH radical scavenging activity at 4 ug/ml after 30 min
[5] = tested on: Radical scavenging activity; experiment: Antioxidant activity of the compound assessed as DPPH radical scavenging activity at 6 ug/ml after 30 min
[6] = tested on: Radical scavenging activity; experiment: Antioxidant activity of the compound assessed as DPPH radical scavenging activity after 30 min

Row | Structure (SMILES) | IC50 [6] | inhibition [1] | inhibition [2] | inhibition [3] | inhibition [4] | inhibition [5]
1 | O=C1O[C@H]([C@@H](O)CO)C(O)=C1O [ASCORBIC ACID] | 5.68 µg/mL (≈ 32.3 µM) | 18.2% | 69.3% | 87.3% | 35.3% | 53.2%
2 | Nc1ccccc1-c1nnc(-c2ccccc2N)o1 | 7.76 µg/mL (≈ 30.8 µM) | 12.1% | 52.1% | 64% | 25.8% | 38.6%
3 | Nc1ccc(-c2nnc(-c3ccccc3N)o2)c(O)c1 | 20.05 µg/mL (≈ 74.7 µM) | 4.98% | 19.9% | 24.9% | 9.97% | 14.9%
4 | Cc1cccc(-c2nnc(-c3ccccc3N)o2)c1O | 6 µg/mL (≈ 22.4 µM) | 15.9% | 64.9% | 81.9% | 31.9% | 48.8%

More lines, main results first:

Row | IC50 [6] | Structure (SMILES) | inhibition [1] | inhibition [2] | inhibition [3] | inhibition [4] | inhibition [5]
5 | 9.01 µg/mL (≈ 35 µM) | Clc1ccc(-c2nnc(-c3ccncc3)o2)cc1 | 12.8% | 43.6% | 53.8% | 24.4% | 39%
6 | 12.47 µg/mL (≈ 46.5 µM) | O=[N+]([O-])c1ccc(-c2nnc(-c3ccncc3)o2)cc1 | 6.66% | 31.5% | 39.8% | 14.9% | 23.2%
7 | 8.26 µg/mL (≈ 30.4 µM) | Nc1ccccc1-c1nnc(-c2ccc(Cl)cc2)o1 | 12.3% | 50% | 59.5% | 23.5% | 36.2%
8 | 6.99 µg/mL (≈ 26.1 µM) | O=[N+]([O-])c1cccc(-c2nnc(-c3ccncc3)o2)c1 | 15% | 57.7% | 71.2% | 28.7% | 42.5%
9 | 12.08 µg/mL (≈ 50.7 µM) | Nc1ccc(-c2nnc(-c3ccncc3)o2)cc1 | 8.27% | 33.1% | 41.4% | 16.5% | 24.8%
10 | 16.04 µg/mL (≈ 56.8 µM) | Nc1ccccc1-c1nnc(-c2cccc([N+](=O)[O-])c2)o1 | 5.51% | 25.2% | 30.8% | 14.2% | 19.7%
